Reference: article PMC11596536, “Unveiling the Anticancer Potential of a New Ciprofloxacin-Chalcone Hybrid as an Inhibitor of Topoisomerases I & II and Apoptotic Inducer” (Molecules, 2024)

Biological target: T1, Topoisomerase I (Homo sapiens, UniProt P11387)
T1 construct: gene TOP1
T1 sequence (P11387 2-765): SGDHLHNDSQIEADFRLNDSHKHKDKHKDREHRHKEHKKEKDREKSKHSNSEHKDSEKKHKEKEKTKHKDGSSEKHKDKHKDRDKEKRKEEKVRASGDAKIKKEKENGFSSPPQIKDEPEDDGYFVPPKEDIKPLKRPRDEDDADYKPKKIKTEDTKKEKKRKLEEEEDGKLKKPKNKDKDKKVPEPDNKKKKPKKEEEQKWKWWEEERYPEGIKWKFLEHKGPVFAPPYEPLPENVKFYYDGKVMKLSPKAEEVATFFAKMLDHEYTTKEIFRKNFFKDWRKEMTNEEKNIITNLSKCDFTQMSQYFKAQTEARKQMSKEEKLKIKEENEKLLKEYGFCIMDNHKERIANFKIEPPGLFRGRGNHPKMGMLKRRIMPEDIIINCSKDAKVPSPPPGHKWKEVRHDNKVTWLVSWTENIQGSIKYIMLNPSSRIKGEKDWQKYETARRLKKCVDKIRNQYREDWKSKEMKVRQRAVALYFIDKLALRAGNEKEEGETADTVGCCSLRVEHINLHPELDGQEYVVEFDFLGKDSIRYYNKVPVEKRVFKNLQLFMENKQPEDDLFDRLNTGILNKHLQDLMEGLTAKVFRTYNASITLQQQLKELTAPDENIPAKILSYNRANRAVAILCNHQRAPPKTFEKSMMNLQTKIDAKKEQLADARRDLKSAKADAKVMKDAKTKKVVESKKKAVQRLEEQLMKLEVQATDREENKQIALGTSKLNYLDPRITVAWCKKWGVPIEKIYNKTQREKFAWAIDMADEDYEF
Experiment: Topo I DNA relaxation assay (commercial kit), agarose gel electrophoresis
Type: biochemical

O=C(/C=C/c1ccc(Cl)cc1)c1ccc(NC(=O)N2CCN(c3cc4c(cc3F)c(=O)c(C(=O)O)cn4C3CC3)CC2)cc1 [compound 2, 7-(4-((4-(3-(4-Chlorophenyl)acryloyl)phenyl)carbamoyl)piperazin-1-yl)-1-cyclopropyl-6-fluoro-4-oxo-1,4-dihydroquinoline-3-carboxylic acid]
IC50: 37.5 µM
